Experimental data: US10266526B2, “Substituted 1,2,3-triazoles as SMYD inhibitors for treating cancer” (EPIZYME, INC., priority 2014, dated 2019)

Molecular target: SMYD3 (Homo sapiens (Human), UniProt Q9H7B4)
Assay: SMYD3 biochemical assay (SMYD3 enzyme assay on MEKK2 protein substrate, 3H-SAM scintillation proximity assay)
Details: Table 1A; average of n = 1 to n = 50; read-out: SMYD3 Biochem IC50
Procedure, shortened: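 Native full-length human SMYD3, expressed in E. coli, was preincubated with compound for 30 min at room temperature in 25 mM Tris-Cl pH 8.0, 1 mM TCEP, 0.005% BSG and 0.005% Tween 20. ³H-SAM plus GST-MEKK2 then started the reaction. It was stopped with unlabeled SAM (100 uM final), and methylated MEKK2 was read by SPA.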

SMYD3, sequence (Q9H7B4 whole entry): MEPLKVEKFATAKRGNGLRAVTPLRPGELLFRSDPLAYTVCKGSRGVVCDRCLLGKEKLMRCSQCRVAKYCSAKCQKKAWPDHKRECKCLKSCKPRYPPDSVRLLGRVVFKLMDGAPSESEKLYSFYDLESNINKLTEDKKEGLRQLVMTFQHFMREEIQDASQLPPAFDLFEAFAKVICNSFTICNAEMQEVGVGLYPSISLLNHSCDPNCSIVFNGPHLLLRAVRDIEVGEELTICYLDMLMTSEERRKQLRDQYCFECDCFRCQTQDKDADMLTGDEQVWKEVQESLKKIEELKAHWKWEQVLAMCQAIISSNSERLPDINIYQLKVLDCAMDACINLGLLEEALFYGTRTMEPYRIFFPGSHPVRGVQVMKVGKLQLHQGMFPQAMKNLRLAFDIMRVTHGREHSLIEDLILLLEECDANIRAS

Structure (SMILES)	IC50
N[C@H]1CC[C@H](NC(=O)c2n[nH]c(Cl)n2)CC1 [compound 541, N-((1r,4r)-4-aminocyclohexyl)-5-chloro-1H-1,2,4-triazole-3-carboxamide]	> 50 µM
N[C@H]1CC[C@H](NC(=O)c2nc3ccncc3s2)CC1 [compound 533, N-((1r,4r)-4-aminocyclohexyl)thiazolo[5,4-c]pyridine-2-carboxamide]	> 50 µM
N[C@H]1CC[C@H](NC(=O)c2cc(Cl)[nH]n2)CC1 [compound 545, N-((1r,4r)-4-aminocyclohexyl)-5-chloro-1H-pyrazole-3-carboxamide]	> 50 µM
N[C@H]1CC[C@H](NC(=O)c2n[nH]c(=O)[nH]2)CC1 [compound 531, N-((1r,4r)-4-aminocyclohexyl)-5-oxo-4,5-dihydro-1H-1,2,4-triazole-3-carboxamide]	> 50 µM

Same assay, conditions: read-out: SMYD3 Biochem IC50

Structure (SMILES)	IC50
Cc1cccc2cc(C(=O)NC(C)C3CCN(C(=O)[C@H](C)N)CC3)[nH]c12 (stereo partly drawn) [compound 300, N-(1-(1-(L-alanyl)piperidin-4-yl)ethyl)-7-methyl-1H-indole-2-carboxamide]	> 100 µM
N[C@H]1CC[C@H](NC(=O)Cc2cccc(C(F)(F)F)c2)CC1 [compound 457, N-((1r,4r)-4-aminocyclohexyl)-2-(3-(trifluoromethyl)phenyl)acetamide]	> 100 µM
CC(NC(=O)c1ccc2ncsc2c1)C1CCN(C(=O)[C@H](C)N)CC1 (stereo partly drawn) [compound 228, N-(1-(1-(L-alanyl)piperidin-4-yl)ethyl)benzo[d]thiazole-6-carboxamide]	> 100 µM
N[C@H]1CC[C@H](NC(=O)c2cc3cc(Cl)ccc3[nH]2)CC1 [compound 231, N-((1r,4r)-4-aminocyclohexyl)-5-chloro-1H-indole-2-carboxamide]	91.5 µM
N[C@H]1CC[C@H](NC(=O)c2nc3ccccc3[nH]2)CC1 [compound 336, N-((1r,4r)-4-aminocyclohexyl)-1H-benzo[d]imidazole-2-carboxamide]	> 100 µM
N[C@H]1CC[C@H](NC(=O)[C@H]2CCc3ccccc3N2)CC1 [compound 436, (R)-N-((1r,4r)-4-aminocyclohexyl)-1,2,3,4-tetrahydroquinoline-2-carboxamide]	12.5 µM
N[C@H]1CC[C@H](NC(=O)Cc2cncnc2)CC1 [compound 365, N-((1r,4r)-4-aminocyclohexyl)-2-(pyrimidin-5-yl)acetamide]	> 100 µM
Cc1nc2ccccc2c(C(=O)NC(C)C2CCN(C(=O)[C@H](C)N)CC2)c1N (stereo partly drawn) [compound 489, N-(1-(1-(L-alanyl)piperidin-4-yl)ethyl)-3-amino-2-methylquinoline-4-carboxamide]	31.6 µM
CC(NC(=O)c1cc(O)c2ccccc2n1)C1CCN(C(=O)[C@H](C)N)CC1 (stereo partly drawn) [compound 225, N-(1-(1-(L-alanyl)piperidin-4-yl)ethyl)-4-hydroxyquinoline-2-carboxamide]	> 100 µM
NCCC(=O)N[C@H]1CC[C@H](NC(=O)c2ccc3c(c2)OC(F)(F)O3)CC1 [compound 330, N-((1r,4r)-4-(3-aminopropanamido)cyclohexyl)-2,2-difluorobenzo[d][1,3]dioxole-5-carboxamide]	7.49 µM
CC(C)(CNC(=O)CCN)CNS(=O)(=O)c1ccc2c(c1)CC(=O)N2 [compound 468, 3-amino-N-(2,2-dimethyl-3-((2-oxoindoline)-5-sulfonamido)propyl)propanamide]	18.3 µM
CC(NC(=O)c1cc(O)nc2ccccc12)C1CCN(C(=O)[C@H](C)N)CC1 (stereo partly drawn) [compound 199, N-(1-(1-(L-alanyl)piperidin-4-yl)ethyl)-2-hydroxyquinoline-4-carboxamide]	> 100 µM
NC(=O)Cn1cc(C(=O)N[C@H]2CC[C@H](N)CC2)nn1 [compound 501, 1-(2-amino-2-oxoethyl)-N-((1r,4r)-4-aminocyclohexyl)-1H-1,2,3-triazole-4-carboxamide]	50 µM
CC(=O)Nc1ccc(C(=O)N[C@H]2CC[C@H](NC(=O)CCN)CC2)nc1 [compound 463, 5-acetamido-N-((1r,4r)-4-(3-aminopropanamido)cyclohexyl)picolinamide]	> 100 µM
N[C@H]1CC[C@H](C(=O)Nc2ccc3c(c2)CC(=O)N3)CC1 [compound 428, (1r,4r)-4-amino-N-(2-oxoindolin-5-yl)cyclohexane-1-carboxamide]	30.6 µM
N[C@H]1CC[C@H](NC(=O)c2ccc(-n3cnnc3)cc2)CC1 [compound 278, N-((1r,4r)-4-aminocyclohexyl)-4-(4H-1,2,4-triazol-4-yl)benzamide]	> 100 µM
N[C@H]1CC[C@H](NC(=O)c2cccnc2O)CC1 [compound 411, N-((1r,4r)-4-aminocyclohexyl)-2-hydroxynicotinamide]	> 100 µM
Cc1cccc2cc(C(=O)N[C@H]3CC[C@H](N)CC3)[nH]c12 [compound 343, N-((1r,4r)-4-aminocyclohexyl)-7-methyl-1H-indole-2-carboxamide]	68.5 µM
CC(NC(=O)c1cccc2c1OC(F)(F)O2)C1CCN(C(=O)[C@H](C)N)CC1 (stereo partly drawn) [compound 266, N-(1-(1-(L-alanyl)piperidin-4-yl)ethyl)-2,2-difluorobenzo[d][1,3]dioxole-4-carboxamide]	> 100 µM
Cc1cncc(C(=O)NC(C)C2CCN(C(=O)[C@H](C)N)CC2)c1 (stereo partly drawn) [compound 256, N-(1-(1-(L-alanyl)piperidin-4-yl)ethyl)-5-methylnicotinamide]	61.6 µM
CC(NC(=O)c1cn2ccsc2n1)C1CCN(C(=O)[C@H](C)N)CC1 (stereo partly drawn) [compound 239, N-(1-(1-(L-alanyl)piperidin-4-yl)ethyl)imidazo[2,1-b]thiazole-6-carboxamide]	> 100 µM

Same assay, conditions: read-out: SMYD3 Biochem IC50 (μM)*

Structure (SMILES)	IC50
N[C@H]1CC[C@H](NC(=O)c2cccc3c2OCC(=O)N3)CC1 [compound 115, N-((1r,4r)-4-aminocyclohexyl)-3-oxo-3,4-dihydro-2H-benzo[b][1,4]oxazine-8-carboxamide]	61.2 µM
N[C@H]1CC[C@H](NC(=O)c2cc(-n3cnnc3)ccc2Cl)CC1 [compound 126, N-((1r,4r)-4-aminocyclohexyl)-2-chloro-5-(4H-1,2,4-triazol-4-yl)benzamide]	32 µM
N[C@H]1CC[C@H](NC(=O)c2cn(C3CC3)nn2)CC1 [compound 11, N-((1r,4r)-4-aminocyclohexyl)-1-cyclopropyl-1H-1,2,3-triazole-4-carboxamide]	15.4 µM
Cn1nc(N)cc1C(=O)N[C@H]1CC[C@H](N)CC1 [compound 48, 3-amino-N-((1r,4r)-4-aminocyclohexyl)-1-methyl-1H-pyrazole-5-carboxamide]	117 µM
NCCCCNC(=O)c1ccc2c(c1)CC(=O)N2 [compound 106, N-(4-aminobutyl)-2-oxoindoline-5-carboxamide]	13.4 µM
N[C@H]1CC[C@H](NC(=O)c2ccc3c(c2)NC(=O)CN3)CC1 [compound 70, N-((1r,4r)-4-aminocyclohexyl)-3-oxo-1,2,3,4-tetrahydroquinoxaline-6-carboxamide]	77.5 µM
CC(NC(=O)c1ccc2c(c1)CCC(=O)N2)C1CCN(C(=O)[C@H](C)N)CC1 (stereo partly drawn) [compound 96, N-(1-(1-(L-alanyl)piperidin-4-yl)ethyl)-2-oxo-1,2,3,4-tetrahydroquinoline-6-carboxamide]	193 µM
NCCC(=O)NC1CCC(NC(=O)c2ccc3c(c2)CC(=O)N3)CC1 (stereo not drawn) [compound 130, N-(4-(3-aminopropanamido)cyclohexyl)-2-oxoindoline-5-carboxamide]	0.29 µM
CC(NC(=O)c1ccc2ccc(O)nc2c1)C1CCN(C(=O)[C@H](C)N)CC1 (stereo partly drawn) [compound 120, N-(1-(1-(L-alanyl)piperidin-4-yl)ethyl)-2-hydroxyquinoline-7-carboxamide]	86.9 µM
COc1cc(C(=O)NC(C)C2CCN(C(=O)[C@H](C)N)CC2)cc2c1OCC(=O)N2 (stereo partly drawn) [compound 98, N-(1-(1-(L-alanyl)piperidin-4-yl)ethyl)-8-methoxy-3-oxo-3,4-dihydro-2H-benzo[b][1,4]oxazine-6-carboxamide]	151 µM
COc1ccc2cc(C(C)C(=O)N[C@H]3CC[C@H](NC(=O)CCN)CC3)ccc2c1 (stereo partly drawn) [compound 169, 3-amino-N-((1r,4r)-4-(2-(6-methoxynaphthalen-2-yl)propanamido)cyclohexyl)propanamide]	> 100 µM
Nc1ccc(C(=O)N[C@H]2CC[C@H](N)CC2)cn1 [compound 123, 6-amino-N-((1r,4r)-4-aminocyclohexyl)nicotinamide]	108 µM
CCc1cc(C(=O)N[C@H]2CC[C@H](N)CC2)on1 [compound 14, N-((1r,4r)-4-aminocyclohexyl)-3-ethylisoxazole-5-carboxamide]	104 µM
N[C@H]1CC[C@H](NC(=O)c2ccc3nc(O)ccc3c2)CC1 [compound 76, N-((1r,4r)-4-aminocyclohexyl)-2-hydroxyquinoline-6-carboxamide]	115 µM
CC(NC(=O)c1ccncc1)C1CCN(C(=O)[C@H](C)N)CC1 (stereo partly drawn) [compound 138, N-(1-(1-(L-alanyl)piperidin-4-yl)ethyl)isonicotinamide]	> 100 µM
N[C@H]1CC[C@H](NC(=O)c2n[nH]c3ccccc23)CC1 [compound 172, N-((1r,4r)-4-aminocyclohexyl)-1H-indazole-3-carboxamide]	> 100 µM
CCC(=O)c1c[nH]c(C(=O)Nc2ccc(CN)cc2)c1 [compound 52, N-(4-(aminomethyl)phenyl)-4-propionyl-1H-pyrrole-2-carboxamide]	108 µM
N[C@H]1CC[C@H](NC(=O)c2ccc3c(c2)NC(=O)CO3)CC1 [compound 20, N-((1r,4r)-4-aminocyclohexyl)-3-oxo-3,4-dihydro-2H-benzo[b][1,4]oxazine-6-carboxamide]	16 µM
N[C@@H](Cc1ccc(O)cc1)C(=O)N1CCC(NC(=O)c2ccc3c(c2)CC(=O)N3)CC1 [compound 49, N-(1-(L-tyrosyl)piperidin-4-yl)-2-oxoindoline-5-carboxamide]	0.86 µM
N[C@H]1CC[C@H](NC(=O)c2ccncc2)CC1 [compound 140, N-((1r,4r)-4-aminocyclohexyl)isonicotinamide]	> 100 µM
